Tests used:
Format in all cases: cell-based
K562 = experiment: MTT assay, K562 cells; settings: Homo sapiens, 24 h, MTT, read-out: Viability rate
Nalm-6 = experiment: MTT assay, Nalm-6 cells; settings: Homo sapiens, 24 h, MTT, read-out: Viability rate
Molt-4 = experiment: MTT assay, Molt-4 cells; settings: Homo sapiens, MOLT-4, 24 h, read-out: Viability rate
Protocol: (§1) K562, Jurkat, Molt-4, and Nalm-6 cell lines were cultured in RPMI-1640 medium (ECM2001, Euroclone), Reh cell line was cultured in DMEM medium (LM-D1111-Biosera) Hek293T cell line was cultured in IMDM medium (AL070A - HiMedia) supplemented with 10% heat-inactivated fetal bovine serum (F7524-Merck & Co., USA,) penicillin and streptomycin (P4333-Sigma Aldrich). K562, Jurkat and Molt-4 cell lines were seeded as 4x10^5/ml, Reh and Nalm-6 cell lines were seeded 5x10^5/ml, Hek293T cell line was seed as 2x10^5/ml. All cells were incubated at 5% CO2 and 37 °C. All cell lines were kindly provided by Dr. M. Sayitoglu and Dr. Ö. Hatirnaz-Ng from Acibadem University.
(§2) MTT assay is a 3-day test. On the first day, cell count was performed in Bio Rad TC-20 device with the help of trypan blue, each cell line was prepared by diluting to the specified concentrations and seeded in a 96-well plate as 100μL to each well and incubated for 1 day.
(§3) Each compound was solved in DMSO, their stock solutions (33.3, 10, 5, 1 mM, and 300 μM) were prepared by diluting with the same solvent and they were stored under −20°C when they were not used.
(§4) On the second day, stock solutions were subsequently diluted to various concentrations (0.3–200 μM) with related medium prior to experiments. Specified concentrations of the compounds were seeded in a 96-well plate as 100μL to each well and incubated for 24 h.
(§5) After incubation (on the third day), to precipitate leukemia cells, the cell plate was centrifuged at 1500 rpm for 5 min. Then, 100 μL of supernatant was removed from each well carefully and 10 μl of MTT solution (5 mg/mL) was added to each well and incubated at 37 °C for 4 h. The 50 μl of supernatant was discarded from each well and 100 μl of DMSO was added to dissolve the formazan. Plates were shaken for 45 min to dissolve the dye. Then the optical density of each well was measured by using Thermo VarioSkan Flush Multimode Reader Quantum ST5-1100 at 570 nm wavelength.
(§6) Subsequently, viability rate of the cells at each concentration, as percentage, was determined by following formula (1):
(§7) Viability rate (%)=100-[(OD(control)-OD(sample))/OD(control)×100].OD=Optical Density
(§8) The IC50 values were calculated by using GraphPad Prism. All the data presented as the mean of 6 replicates. Results were analyzed and illustrated with Graph Pad Prism (version 5; GraphPad Software, San Diego, CA, USA). Statistical analysis was performed using dose-response inhibition, log(inhibitor) vs response-variable slope, least squares (ordinary) fit.
(§9) To evaluate in-vitro anti-cancer activity of the newly synthesized compounds, they were tested by using the MTT assay in the BCR-ABL positive leukemic cell line (K562), BCR-ABL negative leukemic cell lines (Nalm-6, Molt-4, Reh and Jurkat), and non-leukemic human embryonic kidney tissue (Hek293T) cell line. […] The viability rate of each concentration was calculated by the formula stated in material and methods, the viability rate results for each cell were presented in Table S2 and Figure S44.

Reh = experiment: MTT assay, Reh cells; settings: Homo sapiens, 24 h, read-out: Viability rate
Protocol: as §1, §2, §3, §4, §5, §6, §7, §8, §9

Jurkat = experiment: MTT assay, Jurkat cells; settings: Homo sapiens, 24 h, read-out: Viability rate
Protocol: as §1, §2, §3, §4, §5, §6, §7, §8, §9

[1] = MTT assay, Hek293T non-leukemic control cells; settings: human, Hek293T cells (non-leukemic control cell line), read-out: Viability rate
Protocol: as §1, §2, §3, §4, §5, §6, §7, §8, §9

[2] = test system: K562, Nalm-6, Molt-4, Reh, Jurkat, Hek293T cell lines; experiment: MTT assay, overall judgement over all cell lines; settings: overall judgement in words; for 6 and 10: on all cell lines, except Reh
Protocol: as §9

Cc1ccnc(Nc2cc(NC(=O)c3ccc(CN4CCN(c5ncccn5)CC4)cc3)ccc2C)n1 [Compound 5, N-(4-Methyl-3-((4-methylpyrimidin-2-yl)amino)phenyl)-4-((4-(pyrimidin-2-yl)piperazin-1-yl)methyl)benzamide]
viability at 1 µM (K562; K562, 1 μM): 103.1 ± 0.07%
viability at 3 µM (K562; K562, 3 μM): 98.7 ± 0.08%
viability at 5 µM (K562; K562, 5 μM): 99.7 ± 0.06%
viability at 10 µM (K562; K562, 10 μM): 97 ± 0.05%
viability at 15 µM (K562; K562, 15 μM): 99.5 ± 0.12%
viability at 20 µM (K562; K562, 20 μM): 106.5 ± 0.04%
viability at 30 µM (K562; K562, 30 μM): 102.7 ± 0.05%
viability at 50 µM (K562; K562, 50 μM): 101.6 ± 0.12%
viability at 70 µM (K562; K562, 70 μM): 100.1 ± 0.08%
viability at 100 µM (K562; K562, 100 μM): 104.6 ± 0.1%
viability at 150 µM (K562; K562, 150 μM): 104.3 ± 0.1%
viability at 200 µM (K562; K562, 200 μM): 102.1 ± 0.14%
viability at 1 µM (Nalm-6; Nalm-6, 1 μM): 95.8 ± 0.01%
viability at 3 µM (Nalm-6; Nalm-6, 3 μM): 95 ± 0.02%
viability at 5 µM (Nalm-6; Nalm-6, 5 μM): 92.4 ± 0.03%
viability at 10 µM (Nalm-6; Nalm-6, 10 μM): 90.1 ± 0.02%
viability at 15 µM (Nalm-6; Nalm-6, 15 μM): 84.1 ± 0.01%
viability at 20 µM (Nalm-6; Nalm-6, 20 μM): 80.1 ± 0.02%
viability at 30 µM (Nalm-6; Nalm-6, 30 μM): 78.6 ± 0.01%
viability at 50 µM (Nalm-6; Nalm-6, 50 μM): 74.1 ± 0.01%
viability at 70 µM (Nalm-6; Nalm-6, 70 μM): 71.9 ± 0.01%
viability at 100 µM (Nalm-6; Nalm-6, 100 μM): 70.3 ± 0.01%
viability at 150 µM (Nalm-6; Nalm-6, 150 μM): 70.2 ± 0.01%
viability at 200 µM (Nalm-6; Nalm-6, 200 μM): 70.5 ± 0.01%
viability at 1 µM (Molt-4; Molt-4, 1 μM): 95.2 ± 0.08%
viability at 3 µM (Molt-4; Molt-4, 3 μM): 84.6 ± 0.04%
viability at 5 µM (Molt-4; Molt-4, 5 μM): 85.1 ± 0.11%
viability at 10 µM (Molt-4; Molt-4, 10 μM): 84.8 ± 0.03%
viability at 15 µM (Molt-4; Molt-4, 15 μM): 84.9 ± 0.11%
viability at 20 µM (Molt-4; Molt-4, 20 μM): 85.8 ± 0.03%
viability at 30 µM (Molt-4; Molt-4, 30 μM): 85.3 ± 0.06%
viability at 50 µM (Molt-4; Molt-4, 50 μM): 86.1 ± 0.11%
viability at 70 µM (Molt-4; Molt-4, 70 μM): 84.6 ± 0.05%
viability at 100 µM (Molt-4; Molt-4, 100 μM): 83.5 ± 0.12%
viability at 150 µM (Molt-4; Molt-4, 150 μM): 87.1 ± 0.09%
viability at 200 µM (Molt-4; Molt-4, 200 μM): 86.6 ± 0.08%
viability at 1 µM (Reh; 1 μM): 96.6 ± 0.01%
viability at 3 µM (Reh; 3 μM): 95.8 ± 0.05%
viability at 5 µM (Reh; 5 μM): 95.7 ± 0.03%
viability at 10 µM (Reh; 10 μM): 95.1 ± 0.04%
viability at 15 µM (Reh; 15 μM): 94.9 ± 0.04%
viability at 20 µM (Reh; 20 μM): 90.2 ± 0.03%
viability at 30 µM (Reh; 30 μM): 87.9 ± 0.04%
viability at 50 µM (Reh; 50 μM): 85.5 ± 0.05%
viability at 70 µM (Reh; 70 μM): 81.4 ± 0.01%
viability at 100 µM (Reh; 100 μM): 79.1 ± 0.01%
viability at 150 µM (Reh; 150 μM): 79.1 ± 0.02%
viability at 200 µM (Reh; 200 μM): 74%
viability at 3 µM (Jurkat; 3 μM): 90.1 ± 0.11%
viability at 5 µM (Jurkat; 5 μM): 89.7 ± 0.09%
viability at 10 µM (Jurkat; 10 μM): 89.6 ± 0.15%
viability at 15 µM (Jurkat; 15 μM): 88.8 ± 0.09%
viability at 20 µM (Jurkat; 20 μM): 88.8 ± 0.08%
viability at 30 µM (Jurkat; 30 μM): 88.1 ± 0.1%
viability at 50 µM (Jurkat; 50 μM): 83.4 ± 0.12%
viability at 70 µM (Jurkat; 70 μM): 82.5 ± 0.07%
viability at 100 µM (Jurkat; 100 μM): 80.8 ± 0.13%
viability at 150 µM (Jurkat; 150 μM): 78.7 ± 0.12%
viability at 200 µM (Jurkat; 200 μM): 66.5 ± 0.05%
viability at 24 h, 3 µM ([1]; 3 μM): 66.5 ± 0.11%
viability at 24 h, 5 µM ([1]; 5 μM): 61 ± 0.13%
viability at 24 h, 10 µM ([1]; 10 μM): 59.4 ± 0.08%
viability at 24 h, 15 µM ([1]; 15 μM): 56.6 ± 0.1%
viability at 24 h, 20 µM ([1]; 20 μM): 56.2 ± 0.03%
viability at 24 h, 30 µM ([1]; 30 μM): 55.8 ± 0.05%
viability at 24 h, 50 µM ([1]; 50 μM): 54.1 ± 0.04%
viability at 24 h, 70 µM ([1]; 70 μM): 52.7 ± 0.03%
viability at 24 h, 100 µM ([1]; 100 μM): 50.5 ± 0.02%
viability at 24 h, 150 µM ([1]; 150 μM): 50.4 ± 0.02%
viability at 24 h, 200 µM ([1]; 200 μM): 50 ± 0.04%
anticancer activity according to MTT assay results [2]: very poor activity
